Measured values reported in US10722582B2, “Targeted antimicrobial photodynamic therapy” (Purdue Research Foundation, priority 2018, dated 2020).
Marks after values point to notes of the source that are not given here.

Columns and labels:
[1] = test system: MRSA (USA500), clinical isolate NRS 385; assay: aPDI with CFL irradiation (406 nm), planktonic bacteria, drop-plate colony count; type: cell-based, Staphylococcus aureus; conditions: for potency relative to dark toxicity (0 min exposure): 15 min CFL, 3-log reduction
Description: (§1) In all cases, we observed potent aPDI with bactericidal activities at 1-5 μM (Table 1). The consistent response to Ga-PpIX treatment is encouraging, as variable efficacy between strains is a known problem in antimicrobial photodynamic therapy (Nakonieczna, J. et al., Photodiagn. Photodyn. Ther. 2012, 9, 359-361). […] We note that PpIX is already approved as a photosensitizer for topical treatment of several skin diseases, but its utility is limited by poor photostability.
(§2) All bacterial strains were cultured at 37° C. in an aerobic atmosphere unless otherwise noted. […] Bacterial counts were estimated in units of cfu/mL by plating serial dilutions onto agar plates, followed by incubation for 16 hours at 37° C. Iron-challenged conditions were typically achieved by first growing the bacteria in standard (iron-replete) media (see Table 2), then harvesting and resuspending in media containing 3 mM 2,2′-bipyridine. Further details and variations on iron-deficient culture conditions are provided in Supporting Information.
(§3) A 20-W compact fluorescent lightbulb (CFL; Sunlite SL20/BLB) housed in an ellipsoidal reflector dome was used for aPDI, at an emission wavelength at 406 nm and a mean power density of 12.4 mW/cm^2 (after applying a 408-nm shortpass filter). Antimicrobial assays were performed on planktonic bacteria at 10^7 cfu/mL with variable exposure times to CFL irradiation, followed by plating on agar and incubation at 37° C. In a typical experiment, bacterial suspensions were transferred into 96-well plates then treated with 100-μL aliquots of Ga-PpIX or PpIX solution, with final concentrations ranging from 320 to 0.31 μg/mL, followed immediately with CFL irradiation for 5 to 15 minutes. The irradiated bacteria were plated onto agar in serial tenfold dilutions (10^7-10^1 cfu/mL); controls included one set of wells without photosensitizer, and one set of wells with photosensitizer but without 15 min irradiation, prior to plating (dark toxicity). Bacterial counts were determined by the drop-plate method using TS-agar plates, and reported in colony-forming units per milliliter (cfu/mL).
(§4) The irradiation source consisted of a 20-W compact fluorescent lightbulb (CFL; Sunlite SL20/BLB) housed in an ellipsoidal reflector dome. Emission spectra were measured with an Acton SpectraPro 2300i spectrometer (1200 gratings/inch), with major peaks at 406 and 438 nm and a minor peak at 548 nm (FIG. 10). Irradiance was measured with a handheld luminometer (Lux/FC HS1010A) positioned 4 cm from the CFL, yielding 91 lux or an average power density of 36.4 mW/cm^2; addition of a 425-nm or 408-nm shortpass filter yielded 31 lux or 12.4 mW/cm^2 corresponding with emission at 406 nm. The CFL produced only minor increases in temperature within the dome (28° C. after 15 min).

[2] = test system: MRSA (USA700), clinical isolate NRS 386; assay: as above; type: cell-based, Staphylococcus aureus; conditions: for potency relative to dark toxicity (0 min exposure): 15 min CFL, 3-log reduction
Description: as §1, §2, §3, §4

[3] = test system: MRSA (USA800), clinical isolate NRS 387; assay: as above; type: cell-based, Staphylococcus aureus; conditions: for potency relative to dark toxicity (0 min exposure): 15 min CFL, 3-log reduction
Description: as §1, §2, §3, §4

S. aureus (PCI 1203) = assay: Competitive hemin uptake assay (fluorescence microscopy); type: cell-based, Staphylococcus aureus; conditions: for Fluorescence after 15 min / Fluorescence after 15 min exposure + 1 equiv. hemin: Fe-deficient conditions (TS media containing 3 mM bipy), no background subtraction
Description: To elucidate the relevant structural features for the specific uptake of Ga-PpIX by S. aureus, we performed a competitive uptake assay using one equivalent of hemin against Ga-PpIX, PpIX, and eleven other fluorescent PpIX derivatives, with evaluation by fluorescence microscopy after 15 minutes of co-incubation (FIG. 5 and Table 4). These studies were partly guided by insights taken from the X-ray structures of hemin and Ga-PpIX within the binding pocket of IsdH: (i) coordination of the metal center by an apical tyrosine residue; (ii) the flanking of vinyl groups on pyrrole rings A and B against nearby aromatic residues; and (iii) the extension and presumed hydration of the propionyl groups (rings C and D) outside of the binding pocket.
Bacteria were cultured and assayed in iron-deficient media unless otherwise noted. A stock solution of Ga-PpIX (14.6 μM) was prepared by dispersing 5 mg in 1 mL of 10% DMSO in PBS for 10 minutes in an ultrasonic cleaning bath protected from light, followed by filtration and 10× dilution in PBS just prior to use. Bacterial suspensions (0.5 mL) were treated with freshly prepared solutions of PpIX derivatives for specified periods (5-15 min), then harvested by centrifugation at 5.2 g for 5 minutes, redispersed twice in 0.5 mL deionized water, and centrifuged a third time. A 10-μL aliquot of concentrated bacteria was deposited onto a glass slide and dried in air for 20 min, then imaged by fluorescence microscopy as described above. For details on fluorescence image processing and quantitative analysis, see Supporting Information.
S. aureus (PCI 1203; ATCC 10537) was first cultured in standard TS broth, then in media containing 3 mM bipyridine. Bacteria were pelleted and washed with PBS buffer three times, then resuspended to a final concentration of 10^8 cfu/mL. Stock solutions of hemin and PpIX derivatives 1-13 were prepared at initial concentrations of 292 μM; hemin and fluorescent PpIX solutions were mixed in a 1:1 ratio (0.5 mL), then added to 0.5 mL of bacterial suspension and allowed to sit for 15 min at room temperature. For control studies, hemin or fluorophore solutions were substituted with PBS to maintain constant […]. Bacteria were harvested and washed as described above, then evaluated by fluorescence microscopy for relative uptake efficiency.
Darkfield and fluorescent images were acquired in succession, with the former used to map regions of interest (ROIs) by tracing the outlines of bacteria (FIG. 8). Three images were acquired for each sample; in each case, the tracing map was overlaid onto the fluorescence image to calculate pixel intensities within each ROI, using the mean pixel intensity for quantitative analysis. Bacteria were also imaged without treatment with PpIX analogs, most of which produced values close to that of background except for Salmonella enterica, which served as the upper limit of autofluorescence (cf. FIG. 4). Data collection and image analyses were performed by the same user to ensure consistency for comparative analysis.

[4] = Rish et al. 2007; cited from earlier work
HEK cells = assay: Cytotoxicity against HEK cells; conditions: read-out: IC50 (cytotoxicity)
[5] = 0 min (dark), no irradiation (dark toxicity)
[6] = 0 min (dark), no irradiation (dark toxicity), listed as PpIX
[7] = one equivalent of hemin, 15 minutes of co-incubation
[8] = 0 min (dark), no irradiation (dark toxicity), listed as Ga-

Molecule | Antimicrobial activity (minimum 3-log CFU reduction) [1, 5] | Antimicrobial activity (minimum 3-log CFU reduction) ([1]; 15 min CFL (11.2 J/cm^2)) | Eradication (6 log reduction) ([1]; 15 min CFL (11.2 J/cm^2)) | potency relative to dark toxicity (0 min exposure) [1] | Eradication (6 log reduction) ([1]; No irradiation (dark toxicity)) | Antimicrobial activity (minimum 3-log CFU reduction) [2, 5] | Antimicrobial activity (minimum 3-log CFU reduction) ([2]; 15 min CFL (11.2 J/cm^2)) | Eradication (6 log reduction) ([2]; 15 min CFL (11.2 J/cm^2)) | potency relative to dark toxicity (0 min exposure) [2] | Eradication (6 log reduction) ([2]; No irradiation (dark toxicity)) | Antimicrobial activity (minimum 3-log CFU reduction) [3, 5] | Antimicrobial activity (minimum 3-log CFU reduction) ([3]; 15 min CFL (11.2 J/cm^2)) | Eradication (6 log reduction) ([3]; 15 min CFL (11.2 J/cm^2)) | potency relative to dark toxicity (0 min exposure) [3] | Eradication (6 log reduction) ([3]; No irradiation (dark toxicity)) | Fluorescence after 15 min (S. aureus (PCI 1203)) | Fluorescence after 15 min exposure + 1 equiv. hemin (S. aureus (PCI 1203)) | further results
C=CC1=C(C)c2cc3[nH]c(cc4nc(cc5[nH]c(cc1n2)c(C)c5CCC(=O)O)C(CCC(=O)O)=C4C)c(C)c3C=C [PpIX (2), PpIX, reference compound] | >146 μM | 18.3 μM | 36.3 μM | >8x | >146 μM | >146 μM | 36.3 μM | 73 μM | >4x | >146 μM | >146 μM | 9.1 μM | 18.3 μM | 16x | >146 μM | 16.70 a.u. | 9.4 a.u. | Antimicrobial activity (minimum 3-log CFU reduction) [1, 6]: >146^d μM; Antimicrobial activity (minimum 3-log CFU reduction) [2, 6]: >146^d μM; Antimicrobial activity (minimum 3-log CFU reduction) [3, 6]: 146 μM; effect of hemin competition on uptake (S. aureus (PCI 1203); [7]): moderately affected by hemin
Ga(III)-protoporphyrin [Ga-PpIX (1)] | >146 μM | 4.6 μM | 36.3 μM | >32x | >146 μM | >146 μM | 4.6 μM | 18.3 μM | >32x | >146 μM | 73 μM | 1.1 μM | 2.3 μM | 64x | 146 μM | 42.55 a.u. | 10.0 a.u. | Antimicrobial activity (minimum 3-log CFU reduction) [1, 8]: >146^d μM; Antimicrobial activity (minimum 3-log CFU reduction) [2, 8]: >146^d μM; reduction in fluorescence by competition with hemin (S. aureus (PCI 1203); [7]): greater than 80%; molar extinction coefficient, previous reports [4]: 250000 M⁻¹ cm⁻¹; IC50 (HEK cells): > 10 µM
